Measured values published in PubChem BioAssay AID1963434 (Molecular Pharmacology Branch, DTP, NCI, 2024).

Tested on: 755483-174-R-J1-PDC complex spheroid growth, percent test/control
Assay: Anticancer human tumor 755483-174-R-J1-PDC patient-derived rhabdomyosarcoma cell line growth inhibition [Asc]
Conditions: for IC50: curve of first compound; for viability, T/C: stronger effect = lower value
Procedure, shortened: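 Stromal components (HUVEC and hMSC) are co-assembled with the cancer cells into multicellular spheroids. Drugs are then added singly or paired, at concentrations falling by half-log increments from a clinically achievable maximum, capped at 10 microM without known Cmax.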

[1] = second compound 0.01 µM, first compound 0.00316 µM
[2] = second compound 0.01 µM, first compound 0.01 µM
[3] = second compound 0.01 µM, first compound 0.0316 µM
[4] = second compound 0.01 µM, first compound 0.1 µM
[5] = second compound 0.01 µM, first compound 0.316 µM
[6] = second compound 0.01 µM, first compound 1 µM
[7] = second compound 0.0316 µM, first compound 0.00316 µM
[8] = second compound 0.0316 µM, first compound 0.01 µM
[9] = second compound 0.0316 µM, first compound 0.0316 µM
[10] = second compound 0.0316 µM, first compound 0.1 µM
[11] = second compound 0.0316 µM, first compound 0.316 µM
[12] = second compound 0.0316 µM, first compound 1 µM
[13] = second compound 0.1 µM, first compound 0.00316 µM
[14] = second compound 0.1 µM, first compound 0.01 µM
[15] = second compound 0.1 µM, first compound 0.0316 µM
[16] = second compound 0.1 µM, first compound 0.1 µM
[17] = second compound 0.1 µM, first compound 0.316 µM
[18] = second compound 0.1 µM, first compound 1 µM
[19] = second compound 0.316 µM, first compound 0.00316 µM
[20] = second compound 0.316 µM, first compound 0.01 µM
[21] = second compound 0.316 µM, first compound 0.0316 µM
[22] = second compound 0.316 µM, first compound 0.1 µM
[23] = second compound 0.316 µM, first compound 0.316 µM
[24] = second compound 0.316 µM, first compound 1 µM
[25] = second compound 1 µM, first compound 0.00316 µM
[26] = second compound 1 µM, first compound 0.01 µM
[27] = second compound 1 µM, first compound 0.0316 µM
[28] = second compound 1 µM, first compound 0.1 µM
[29] = second compound 1 µM, first compound 0.316 µM
[30] = second compound 1 µM, first compound 1 µM
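Also: spheroids exposed to compounds for seven days before readout.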

| Structure (SMILES) | IC50 (second compound 0.01 µM) [nM] | IC50 (second compound 0.0316 µM) [nM] | IC50 (second compound 0.1 µM) [nM] | IC50 (second compound 0.316 µM) [nM] | IC50 (second compound 1 µM) [nM] | viability, T/C [1] [%] | viability, T/C [2] [%] | viability, T/C [3] [%] | viability, T/C [4] [%] | viability, T/C [5] [%] | viability, T/C [6] [%] | viability, T/C [7] [%] | viability, T/C [9] [%] | viability, T/C [10] [%] | viability, T/C [15] [%] | viability, T/C [16] [%] | viability, T/C [21] [%] | viability, T/C [22] [%] | viability, T/C [27] [%] | viability, T/C [28] [%] | further results |
| --- | --- | --- | --- | --- | --- | --- | --- | --- | --- | --- | --- | --- | --- | --- | --- | --- | --- | --- | --- | --- | --- |
| CCN1CCN(Cc2ccc(Nc3ncc(F)c(-c4cc(F)c5nc(C)n(C(C)C)c5c4)n3)nc2)CC1 + CNC(C)C(=O)NC1CN(S(=O)(=O)c2cccc(S(=O)(=O)N3CCC4CCC(C(=O)NC(c5ccccc5)c5ccccc5)N4C(=O)C(NC(=O)C(C)NC)C3)c2)CCC2CCC(C(=O)NC(c3ccccc3)c3ccccc3)N2C1=O | < 3.16 | < 3.16 | > 1000 | < 3.16 | < 3.16 | 31.1 | 66 | 53.4 | 54.2 | 61 | 74.4 | 43.8 | 40.6 | 40.5 | 55.4 | 59.5 | 40.9 | 31 | 26.8 | 18.6 | viability, T/C [8]: 33.8%; viability, T/C [11]: 63.8%; viability, T/C [12]: 69.5%; viability, T/C [13]: 58.5%; viability, T/C [14]: 37.7%; viability, T/C [17]: 47.8%; viability, T/C [18]: 57.5%; viability, T/C [19]: 16.2%; viability, T/C [20]: 37.3%; viability, T/C [23]: 47.5%; viability, T/C [24]: 39.9%; viability, T/C [25]: 32.1%; viability, T/C [26]: 18.2%; viability, T/C [29]: 26.1%; viability, T/C [30]: 32.3% |
| Cn1ncnc1[C@H]1c2n[nH]c(=O)c3cc(F)cc(c23)N[C@@H]1c1ccc(F)cc1 + CNC(C)C(=O)NC1CN(S(=O)(=O)c2cccc(S(=O)(=O)N3CCC4CCC(C(=O)NC(c5ccccc5)c5ccccc5)N4C(=O)C(NC(=O)C(C)NC)C3)c2)CCC2CCC(C(=O)NC(c3ccccc3)c3ccccc3)N2C1=O | < 0.316 | < 0.316 | < 0.316 | < 0.316 | < 0.316 | 45.5 | 30.9 | 26.4 | 18.1 | – | – | 33.4 | 18.1 | 12.7 | 13.7 | 9.96 | 6.84 | 9.04 | 9.01 | 7.46 | viability, T/C (second compound 0.01 µM, first compound 0.000316 µM): 39.3%; viability, T/C (second compound 0.01 µM, first compound 0.001 µM): 45.2%; viability, T/C (second compound 0.0316 µM, first compound 0.000316 µM): 36.2%; viability, T/C (second compound 0.0316 µM, first compound 0.001 µM): 42.9%; viability, T/C [8]: 16.2%; viability, T/C (second compound 0.1 µM, first compound 0.000316 µM): 26.2%; viability, T/C (second compound 0.1 µM, first compound 0.001 µM): 33.2%; viability, T/C [13]: 25.4%; viability, T/C [14]: 14.4%; viability, T/C (second compound 0.316 µM, first compound 0.000316 µM): 31.5%; viability, T/C (second compound 0.316 µM, first compound 0.001 µM): 23.6%; viability, T/C [19]: 17.2%; viability, T/C [20]: 14.7%; viability, T/C (second compound 1 µM, first compound 0.000316 µM): 13.7%; viability, T/C (second compound 1 µM, first compound 0.001 µM): 19.7%; viability, T/C [25]: 9.69%; viability, T/C [26]: 9.82% |
| O=C(c1cc(Cc2n[nH]c(=O)c3ccccc23)ccc1F)N1CCN(C(=O)C2CC2)CC1 + CNC(C)C(=O)NC1CN(S(=O)(=O)c2cccc(S(=O)(=O)N3CCC4CCC(C(=O)NC(c5ccccc5)c5ccccc5)N4C(=O)C(NC(=O)C(C)NC)C3)c2)CCC2CCC(C(=O)NC(c3ccccc3)c3ccccc3)N2C1=O | < 31.6 | < 31.6 | < 31.6 | < 31.6 | < 31.6 | – | – | 41.7 | 41.1 | 34.5 | 27.5 | – | 35.3 | 34.3 | 27.2 | 40.2 | 29.5 | 40.1 | 16.7 | 17.2 | viability, T/C (second compound 0.01 µM, first compound 3.16 µM): 24.1%; viability, T/C (second compound 0.01 µM, first compound 10 µM): 12%; viability, T/C [11]: 24.3%; viability, T/C [12]: 21.3%; viability, T/C (second compound 0.0316 µM, first compound 3.16 µM): 17.9%; viability, T/C (second compound 0.0316 µM, first compound 10 µM): 9.95%; viability, T/C [17]: 28.5%; viability, T/C [18]: 23.6%; viability, T/C (second compound 0.1 µM, first compound 3.16 µM): 15.5%; viability, T/C (second compound 0.1 µM, first compound 10 µM): 7.57%; viability, T/C [23]: 23.3%; viability, T/C [24]: 15.7%; viability, T/C (second compound 0.316 µM, first compound 3.16 µM): 8.99%; viability, T/C (second compound 0.316 µM, first compound 10 µM): 3.81%; viability, T/C [29]: 6.88%; viability, T/C [30]: 6.73%; viability, T/C (second compound 1 µM, first compound 3.16 µM): 8.78%; viability, T/C (second compound 1 µM, first compound 10 µM): 3.7% |
| O=C(c1ccc(F)c(F)c1Nc1ccc(I)cc1F)N1CC(O)([C@@H]2CCCCN2)C1 + CNC(C)C(=O)NC1CN(S(=O)(=O)c2cccc(S(=O)(=O)N3CCC4CCC(C(=O)NC(c5ccccc5)c5ccccc5)N4C(=O)C(NC(=O)C(C)NC)C3)c2)CCC2CCC(C(=O)NC(c3ccccc3)c3ccccc3)N2C1=O | 92.3 | 27.7 | < 3.16 | < 3.16 | < 3.16 | 49.5 | 56.7 | 51.5 | 49.9 | 29.4 | 23.4 | 56.5 | 36.2 | 47.8 | 38.6 | 40.3 | 56 | 31.4 | 25.8 | 30.4 | viability, T/C [8]: 62.9%; viability, T/C [11]: 41.7%; viability, T/C [12]: 25.1%; viability, T/C [13]: 38.5%; viability, T/C [14]: 44.7%; viability, T/C [17]: 23.1%; viability, T/C [18]: 8.23%; viability, T/C [19]: 35%; viability, T/C [20]: 25.6%; viability, T/C [23]: 20.5%; viability, T/C [24]: 11.3%; viability, T/C [25]: 23.6%; viability, T/C [26]: 24.4%; viability, T/C [29]: 17.1%; viability, T/C [30]: 4.97% |
